Earlier results, collected in PubChem BioAssay AID1259409 (Chemical Carcinogenesis Research Information System (CCRIS), 2018).

Test system: rodent chemically induced tumor inhibition, incidence and multiplicity
Test: CCRIS tumor inhibitor studies

C#C[C@]1(O)CC[C@H]2[C@@H]3CCc4cc(CC)ccc4[C@H]3CC[C@@]21C (tested in a mixture with another compound)
tumour outcome (control, treated, inhibition, significance) (Carcinogen: 3-METHYLCHOLANTHRENE, 56-49-5, Dose [Inhibitor]: 0, 1/200 OF A PILL CONTAINING 0.25 UG ETHINYLESTRADIOL AND 5 UG LYNESTRENOL 1/D FOR 60 D (STUDY DURATION: 60 D), Route [Inhibitor]: ORAL, Species: MOUSE, Strain/Sex: SWISS/FEMALE, Target Tissue: Type of Lesion: UTERINE CERVIX: TUMOR, Dose [Carcinogen]: 300 UG IN BEESWAX IMPREGNATED COTTON THREAD INSERTED INTO CANAL OF UTERINE CERVIX FOR DURATION OF STUDY, Promoter: NONE USED): 2/23 (9%), 1/27 (4%), 56%, not significant | tumour outcome (control, treated, inhibition, significance) (Carcinogen: 3-METHYLCHOLANTHRENE, 56-49-5, Dose [Inhibitor]: 0, 1/200 OF A PILL CONTAINING 0.25 UG ETHINYLESTRADIOL AND 5 UG LYNESTRENOL 1/D FOR 90 D (STUDY DURATION: 90 D), Route [Inhibitor]: ORAL, Species: MOUSE, Strain/Sex: SWISS/FEMALE, Target Tissue: Type of Lesion: UTERINE CERVIX: TUMOR, Dose [Carcinogen]: 300 UG IN BEESWAX IMPREGNATED COTTON THREAD INSERTED INTO CANAL OF UTERINE CERVIX FOR DURATION OF STUDY, Promoter: NONE USED): 6/23 (26%), 4/20 (20%), 23%, not significant | tumour outcome (control, treated, inhibition, significance) (Carcinogen: 3-METHYLCHOLANTHRENE, 56-49-5, Dose [Inhibitor]: 0, 1/2000 OF A PILL CONTAINING 0.025 UG ETHINYLESTRADIOL AND 0.5 UG OF LYNESTRENOL 1/D FOR 60 D (STUDY DURATION: 60 D), Route [Inhibitor]: ORAL, Species: MOUSE, Strain/Sex: SWISS/FEMALE, Target Tissue: Type of Lesion: UTERINE CERVIX: TUMOR, Dose [Carcinogen]: 300 UG IN BEESWAX IMPREGNATED COTTON THREAD INSERTED INTO CANAL OF UTERINE CERVIX FOR DURATION OF STUDY, Promoter: NONE USED): 2/23 (9%), 1/24 (4%), 56%, not significant | tumour outcome (control, treated, inhibition, significance) (Carcinogen: 3-METHYLCHOLANTHRENE, 56-49-5, Dose [Inhibitor]: 0, 1/2000 OF A PILL CONTAINING 0.025 UG ETHINYLESTRADIOL AND 0.5 UG OF LYNESTRENOL 1/D FOR 90 D (STUDY DURATION: 90 D), Route [Inhibitor]: ORAL, Species: MOUSE, Strain/Sex: SWISS/FEMALE, Target Tissue: Type of Lesion: UTERINE CERVIX: TUMOR, Dose [Carcinogen]: 300 UG IN BEESWAX IMPREGNATED COTTON THREAD INSERTED INTO THE CANAL OF THE UTERINE CERVIX FOR THE DURATION OF STUDY, Promoter: NONE USED): 6/23 (26%), 1/31 (3%), 88%, p<0.05

Nc1nc2ncc(CNc3ccc(C(=O)N[C@@H](CCC(=O)O)C(=O)O)cc3)nc2c(=O)[nH]1
tumour outcome (control, treated, inhibition, significance) (Carcinogen: HYDRAZINE SULFATE, 10034-93-2, Dose [Inhibitor]: 1.1 MG/D IN DIET STARTING 1 WK PRIOR TO ADMINISTRATION OF CARCINOGEN UNTIL END OF EXPERIMENT (STUDY DURATION: APPROXIMAT, Route [Inhibitor]: ORAL, Species: MOUSE, Strain/Sex: SWISS/MALE, FEMALE, Target Tissue: Type of Lesion: LIVER AND LUNG: COMBINED TUMORS, Dose [Carcinogen]: 1.1 MG/D 5 D/WK UNTIL 12 MO OF AGE, Promoter: NONE USED): 24/29 (83%), 19/31 (61%), 26%, p<0.1 | tumour outcome (control, treated, inhibition, significance) (Carcinogen: ISONIAZID, 54-85-3, Dose [Inhibitor]: 1.1 MG/D SIMULTANEOUS WITH CARCINOGEN 6 D/WK (STUDY DURATION: LIFETIME), Route [Inhibitor]: INTRAGASTRIC, Species: MOUSE, Strain/Sex: SWISS/MALE, Target Tissue: Type of Lesion: LUNG: TUMOR, Dose [Carcinogen]: 1.1 MG/D SIMULTANEOUS WITH INHIBITOR, Promoter: NONE USED): 15/29 (52%), 0/16 (0%), 100%, p<0.01 | tumour outcome (control, treated, inhibition, significance) (Carcinogen: N-methyl-N'-nitro-N-nitrosoguanidine, 70-25-7, Dose [Inhibitor]: 0, 5 mg/kg in water for 50 weeks beginning at 6 weeks of age, Route [Inhibitor]: Oral, Species: Rat, Strain/Sex: Wistar/Male, Target Tissue: Type of Lesion: Stomach: Tumor, Dose [Carcinogen]: 100 mg/L in drinking water for 50 weeks): 5/11 (45.5%), 0/10 (0%), 100% p<0.05

Cc1ccc(O)c(C(C)(C)C)c1
tumour outcome (control, treated, inhibition, significance) (Carcinogen: 7,12-DIMETHYLBENZ[A]ANTHRACENE, 57-97-6, Dose [Inhibitor]: 1.0% IN POWDERED DIET BEGINNING 1 WK POST CARCINOGEN DOSE FOR 51 WK (STUDY DURATION: 52 WK), Route [Inhibitor]: ORAL, Species: RAT, Strain/Sex: SPRAGUE-DAWLEY/FEMALE, Target Tissue: Type of Lesion: EAR DUCT: BENIGN TUMOR, Dose [Carcinogen]: 2.5 MG/100 G BW IN 0.5 ML SESAME OIL ONCE, Promoter: NONE USED): 7/19 (37%), 5/19 (26%), 29%, not calculated | tumour outcome (control, treated, inhibition, significance) (Carcinogen: 7,12-DIMETHYLBENZ[A]ANTHRACENE, 57-97-6, Dose [Inhibitor]: 1.0% IN POWDERED DIET BEGINNING 1 WK POST CARCINOGEN DOSE FOR 51 WK (STUDY DURATION: 52 WK), Route [Inhibitor]: ORAL, Species: RAT, Strain/Sex: SPRAGUE-DAWLEY/FEMALE, Target Tissue: Type of Lesion: MAMMARY GLAND: CARCINOMA, Dose [Carcinogen]: 2.5 MG/100 G BW IN 0.5 ML SESAME OIL ONCE, Promoter: NONE USED): 6/19 (32%), 6/19 (32%), 0%, not significant | tumour outcome (control, treated, inhibition, significance) (Carcinogen: 7,12-DIMETHYLBENZ[A]ANTHRACENE, 57-97-6, Dose [Inhibitor]: 1.0% IN POWDERED DIET BEGINNING 1 WK POST CARCINOGEN DOSE FOR 51 WK (STUDY DURATION: 52 WK), Route [Inhibitor]: ORAL, Species: RAT, Strain/Sex: SPRAGUE-DAWLEY/FEMALE, Target Tissue: Type of Lesion: MAMMARY GLAND: FIBROADENOMA, Dose [Carcinogen]: 2.5 MG/100 G BW IN 0.5 ML SESAME OIL ONCE, Promoter: NONE USED): 15/19 (79%), 2/19 (11%), 87%, p<0.001

CC(C)=CCC/C(C)=C/COc1ccc2ccc(=O)oc2c1
tumour outcome (control, treated, inhibition, significance) (Carcinogen: AZOXYMETHANE, 25843-45-2, Dose [Inhibitor]: 0, 0.01% IN DIET FOR 4 WK BEGINNING 1 WK PRIOR TO CARCINOGEN TREATMENT (STUDY DURATION: 38 WK), Route [Inhibitor]: ORAL, Species: RAT, Strain/Sex: F344/MALE, Target Tissue: Type of Lesion: COLON: ADENOCARCINOMA, Dose [Carcinogen]: 15 MG/KG BW 1/WK FOR 3 WK, Promoter: NONE): 60%, 34%, 43%, not significant | tumour outcome (control, treated, inhibition, significance) (Carcinogen: AZOXYMETHANE, 25843-45-2, Dose [Inhibitor]: 0, 0.01% IN DIET FOR 34 WK BEGINNING 1 WK POST LAST CARCINOGEN DOSE (STUDY DURATION: 38 WK), Route [Inhibitor]: ORAL, Species: RAT, Strain/Sex: F344/MALE, Target Tissue: Type of Lesion: COLON: ADENOCARCINOMA, Dose [Carcinogen]: 15 MG/KG BW 1/WK FOR 3 WK, Promoter: NONE): 60%, 24%, 60%, p<0.021 | tumour outcome (control, treated, inhibition, significance) (Carcinogen: AZOXYMETHANE, 25843-45-2, Dose [Inhibitor]: 0, 0.05% IN DIET FOR 4 WK BEGINNING 1 WK PRIOR TO CARCINOGEN TREATMENT (STUDY DURATION: 38 WK), Route [Inhibitor]: ORAL, Species: RAT, Strain/Sex: F344/MALE, Target Tissue: Type of Lesion: COLON: ADENOCARCINOMA, Dose [Carcinogen]: 15 MG/KG BW 1/WK FOR 3 WK, Promoter: NONE): 60%, 20%, 67%, p<0.0075 | tumour outcome (control, treated, inhibition, significance) (Carcinogen: AZOXYMETHANE, 25843-45-2, Dose [Inhibitor]: 0, 0.05% IN DIET FOR 34 WK BEGINNING 1 WK POST LAST CARCINOGEN DOSE (STUDY DURATION: 38 WK), Route [Inhibitor]: ORAL, Species: RAT, Strain/Sex: F344/MALE, Target Tissue: Type of Lesion: COLON: ADENOCARCINOMA, Dose [Carcinogen]: 15 MG/KG BW 1/WK FOR 3 WK, Promoter: NONE): 60%, 20%, 67%, p<0.0075 | tumour outcome (control, treated, inhibition, significance) (Carcinogen: DIETHYLNITROSAMINE [55-18-5], Dose [Inhibitor]: 500 PPM IN DIET FOR 7 WKS, STARTING 1 WK BEFORE CARCINOGEN (STUDY DURATION: 32 WKS), Route [Inhibitor]: DIET, Species: RAT, Strain/Sex: F344/MALE, Target Tissue: Type of Lesion: LIVER: ADENOMA, Dose [Carcinogen]: 40 PPM FOR 5 WKS (STUDY DURATION: 32 WKS)): 46%, 46%, 0% | tumour outcome (control, treated, inhibition, significance) (Carcinogen: DIETHYLNITROSAMINE [55-18-5], Dose [Inhibitor]: 500 PPM IN DIET FOR 7 WKS, STARTING 1 WK BEFORE CARCINOGEN (STUDY DURATION: 32 WKS), Route [Inhibitor]: DIET, Species: RAT, Strain/Sex: F344/MALE, Target Tissue: Type of Lesion: LIVER: CARCINOMA, Dose [Carcinogen]: 40 PPM FOR 5 WKS (STUDY DURATION: 32 WKS)): 100%, 63%, 37% | tumour outcome (control, treated, inhibition, significance) (Carcinogen: DIETHYLNITROSAMINE [55-18-5], Dose [Inhibitor]: 500 PPM IN DIET FOR 25 WKS BEGINNING 1 WK AFTER END OF CARCINOGEN TREATMENT, Route [Inhibitor]: DIET, Species: RAT, Strain/Sex: F344/MALE, Target Tissue: Type of Lesion: LIVER: ADENOMA, Dose [Carcinogen]: 40 PPM FOR 5 WKS (STUDY DURATION: 32 WKS)): 46%, 42%, 8.7% | tumour outcome (control, treated, inhibition, significance) (Carcinogen: DIETHYLNITROSAMINE [55-18-5], Dose [Inhibitor]: 500 PPM IN DIET FOR 25 WKS BEGINNING 1 WK AFTER END OF CARCINOGEN TREATMENT, Route [Inhibitor]: DIET, Species: RAT, Strain/Sex: F344/MALE, Target Tissue: Type of Lesion: LIVER: CARCINOMA, Dose [Carcinogen]: 40 PPM FOR 5 WKS (STUDY DURATION: 32 WKS)): 100%, 33%, 67%
